Columns and labels:
recombinant perforin = recombinant perforin (UniProt P10820); assay type: cell-based; details: read-out: Jurkat IC50; recombinant perforin pre-incubated 30 min with compound; 51Cr-labelled Jurkat cells, 0.1% BSA, 37° C. 4 hours
Method: Inhibition of Perforin-Mediated Lysis of Jurkat Cells
The ability of the compounds to inhibit the lysis of nucleated (Jurkat T lymphoma) cells in the presence of 0.1% BSA, as measured by release of ^51Cr was measured. Jurkat target cells were labelled by incubation in medium with 100 μCi ^51Cr for one hour. The cells were then washed three times to remove unincorporated isotope and re-suspended at 1×10^5 cells per mL in RPMI buffer supplemented with 0.1% BSA. […] The supernatant was collected and assessed for its radioactive content on a gamma counter (Wallac Wizard 1470 automatic gamma counter). Each data point was performed in triplicate and an IC50 was calculated from the range of concentrations described to above.

[1] = tested on: KHYG-1 NK cell-mediated lysis of K562 cells; experiment: Inhibition of KHYG-1 NK cell-mediated lysis of K562 cells (51Cr release); assay type: cell-based; details: K562 target cells, Effector:Target 2:1, 4 hours 37° C.
Method: Inhibition of KHYG-1 NK Cell-Mediated lysis of K562 Cells
KHYG-1 cells were washed and resuspended in RPMI+0.1% BSA at 4×10^5 cells/ml and 50 μl of KHYG-1 cells were dispensed to each well of a 96-well V-bottom, plate. Test compounds were added to KHYG-1 cells at various concentrations up to 20 μM and incubated at RT for 20 minutes. 1×10^6 K562 target cells were labelled with 75 μCi ^51Cr in 200 μl RPMI for 90 mins at 37° C., cells were washed as described above and resuspended in 5 ml RPMI+0.1% BSA. 50 μl of ^51Cr labelled K562 leukemia target cells were added to each well of the KHYG-1 plate (Effector:Target 2:1) and incubated at 37° C. for 4 hours. ^51Cr release was assayed using a Skatron Harvesting Press and radioactivity estimated on a Wallac Wizard 1470 Automatic Gamma counter (Turku, Finland). The percentage of specific cytotoxicity was calculated by the formula: […]
and expressed as the mean of triplicate assays +/−standard error of the mean.

KHYG-1 NK cells = experiment: Toxicity to KHYG-1 NK cells (trypan blue viability); assay type: cell-based; details: viable cells as percentage of total (% viability), 18 to 24 hours
Method: Toxicity to KHYG-1 NK Cells
KHYG-1 cells were washed and resuspended in RPMI+0.1% BSA at 4×10^5 cells/ml and 50 μl of KHYG-1 cells were dispensed to each well of a 96-well V-bottom plate. Test compounds were added to KHYG-1 cells at a concentration of 20 μM and incubated at RT for 20 minutes. 100 μL of RPMI 0.1% BSA was added and the cells were incubated for 4 hours at 37° C. then washed ×3 in RPMI+0.1% BSA. Cells were then resuspended in 200 μl of complete medium and incubated for 18 to 24 hours at 37° C. Trypan blue was added to each well and viable (clear) cells counted as a percentage of total (clear+blue) cell number (% viability).

recombinant perforin, sequence (P10820 whole entry): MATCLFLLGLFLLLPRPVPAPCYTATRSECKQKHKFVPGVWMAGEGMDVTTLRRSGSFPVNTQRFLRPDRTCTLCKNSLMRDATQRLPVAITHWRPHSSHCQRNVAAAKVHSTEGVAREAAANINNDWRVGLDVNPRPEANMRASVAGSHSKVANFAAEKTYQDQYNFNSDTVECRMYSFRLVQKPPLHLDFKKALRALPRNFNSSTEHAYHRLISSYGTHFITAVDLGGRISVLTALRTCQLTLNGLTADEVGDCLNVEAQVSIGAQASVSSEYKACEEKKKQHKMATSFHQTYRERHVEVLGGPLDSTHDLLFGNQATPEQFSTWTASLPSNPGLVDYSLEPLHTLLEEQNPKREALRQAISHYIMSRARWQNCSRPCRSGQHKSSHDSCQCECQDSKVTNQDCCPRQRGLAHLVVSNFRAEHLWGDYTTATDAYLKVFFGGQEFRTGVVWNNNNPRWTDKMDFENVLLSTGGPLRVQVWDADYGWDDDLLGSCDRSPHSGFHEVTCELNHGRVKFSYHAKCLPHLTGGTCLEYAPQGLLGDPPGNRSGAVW

Compound | IC50 (recombinant perforin) [µM] | melting point [°C] | inhibition at 20 µM [1] [%] | percent viable KHYG-1 cells (trypan blue) at 20 μM (KHYG-1 NK cells) [%]
O=C1NC(=S)N/C1=C/c1ccc(-c2cccnc2)s1 [Cmpd 26, (E,Z)-5-((5-(Pyridin-3-yl)thiophen-2-yl)methylene)-2-thioxoimidazolidin-4-one] | 12.9 | > 295 | – | –
CN(C)C(=O)c1ccc(-c2ccc(/C=C3/NC(=S)NC3=O)s2)cc1 [Cmpd 39, (E,Z)-N,N-Dimethyl-4-(5-((5-oxo-2-thioxoimidazolidin-4-ylidene)methyl)thiophen-2-yl)benzamide] | 6.93 | – | 89 | 95
O=C1NC(=S)N/C1=C/c1ccc(-c2ccc(C(=O)NCC(O)CO)cc2)s1 (centres unmarked) [Cmpd 40, (E,Z)-N-(2,3-Dihydroxypropyl)-4-(5-((5-oxo-2-thioxoimidazolidin-4-ylidene)methyl)thiophen-2-yl)benzamide] | 2.44 | – | 47 | 82
CC(O)CNC(=O)c1ccc(-c2ccc(/C=C3/NC(=S)NC3=O)s2)cc1 (centres unmarked) [Cmpd 41, (E,Z)-N-(2-Hydroxypropyl)-4-(5-((5-oxo-2-thioxoimidazolidin-4-ylidene)methyl)thiophen-2-yl)benzamide] | 6.5 | – | 60 | 91
O=C1NC(=S)N/C1=C/c1ccc(-c2ccc(C(=O)NCCCN3CCOCC3)cc2)s1 [Cmpd 43, (E,Z)-N-(3-Morpholinopropyl)-4-(5-((5-oxo-2-thioxoimidazolidin-4-ylidene)methyl)thiophen-2-yl)benzamide] | 8.13 | – | 81 | 89
O=C1NC(=S)N/C1=C/c1ccc(-c2ccc3c(c2)CNC3=O)s1 [Cmpd 46, (E,Z)-5-(5-((5-Oxo-2-thioxoimidazolidin-4-ylidene)methyl)thiophen-2-yl)isoindolin-1-one] | 2.55 | – | 70 | 98
O=C1NC(=O)/C(=C\c2ccc(-c3ccc4c(c3)CNC4=O)s2)N1 [Cmpd 47, (E,Z)-5-((5-(1-Oxoisoindolin-5-yl)thiophen-2-yl)methylene)imidazolidine-2,4-dione] | 0.4 | – | 73 | 92
O=C1NC(=S)N/C1=C\c1ccc(-c2ccc3c(c2)CNC3=O)cn1 [Cmpd 51, (E,Z)-5-(6((5-Oxo-2-thioxoimidazolidin-4-ylidene)methyl)pyridin-3-yl)isoindolin-1-one] | 0.63 | – | 19 | 97
CC(C)N1Cc2cc(-c3ccc(/C=C4/NC(=S)NC4=O)s3)ccc2C1=O [Cmpd 52, (E,Z)-2-Isopropyl-5-(5-((5-oxo-2-thioxoimidazolidin-4-ylidene)methyl)thiophen-2-yl)isoindolin-1-one] | 4.42 | – | 77 | 92
CCN1Cc2cc(-c3ccc(/C=C4/NC(=S)NC4=O)s3)ccc2C1=O [Cmpd 62, (E,Z)-2-Ethyl-5-(5-((5-oxo-2-thioxoimidazolidin-4-ylidene)methyl)thiophen-2-yl)isoindolin-1-one] | 0.6 | – | 84 | 79
CCCN1Cc2cc(-c3ccc(/C=C4/NC(=S)NC4=O)s3)ccc2C1=O [Cmpd 63, (E,Z)-5-(5-((5-Oxo-2-thioxoimidazolidin-4-ylidene)methyl)thiophen-2-yl)-2-propylisoindolin-1-one] | 1.52 | – | 95 | 94
CCCCN1Cc2cc(-c3ccc(/C=C4/NC(=S)NC4=O)s3)ccc2C1=O [Cmpd 64, (E,Z)-2-Butyl-5-(5-((5-oxo-2-thioxoimidazolidin-4-ylidene)methyl)thiophen-2-yl)isoindolin-1-one] | 0.99 | – | 96 | 94
CCOC(=O)N1Cc2cc(-c3ccc(/C=C4/NC(=S)NC4=O)s3)ccc2C1=O [Cmpd 65, (E,Z)-Ethyl 1-oxo-5-(5-((5-oxo-2-thioxoimidazolidin-4-ylidene)methyl)thiophen-2-yl)isoindoline-2-carboxylate] | 0.99 | – | 72 | 96
CC(=O)N1Cc2cc(-c3ccc(/C=C4/NC(=S)NC4=O)s3)ccc2C1=O [Cmpd 66, (E,Z)-2-Acetyl-5-(5-((5-oxo-2-thioxoimidazolidin-4-ylidene)methyl)thiophen-2-yl)isoindolin-1-one] | 0.93 | – | 49 | 85
CC(=O)OCCN1Cc2cc(-c3ccc(/C=C4/NC(=S)NC4=O)s3)ccc2C1=O [Cmpd 68, (E,Z)-2-(1-Oxo-5-(5-((5-oxo-2-thioxoimidazolidin-4-ylidene)methyl)thiophen-2-yl)isoindolin-2-yl)ethyl acetate] | 1.17 | – | 86 | 84
CC1c2cc(-c3ccc(/C=C4/NC(=S)NC4=O)s3)ccc2C(=O)N1C (centres unmarked) [Cmpd 69, (E,Z)-2,3-Dimethyl-5-(5-((5-oxo-2-thioxoimidazolidin-4-ylidene)methyl)thiophen-2-yl)isoindolin-1-one] | 3.21 | – | 100 | 95
O=C1NC(=S)N/C1=C/c1ccc(-c2ccc3c(c2)CN(CCO)C3=O)s1 [Cmpd 70, (E,Z)-2-(2-Hydroxyethyl)-5-(5-((5-oxo-2-thioxoimidazolidin-4-ylidene)methyl)thiophen-2-yl)isoindolin-1-one] | 0.78 | – | 38 | 77
O=C1NC(=S)N/C1=C/c1ccc(-c2ccc3c(c2)CN(CCCO)C3=O)s1 [Cmpd 71, (E,Z)-2-(3-Hydroxypropyl)-5-(5-((5-oxo-2-thioxoimidazolidin-4-ylidene)methyl)thiophen-2-yl)isoindolin-1-one] | 0.53 | – | 62 | 88
O=C1NC(=S)N/C1=C/c1ccc(-c2ccc3c(c2)C(=O)NC3)s1 [Cmpd 72, (E,Z)-6-(5-((5-Oxo-2-thioxoimidazolidin-4-ylidene)methyl)thiophen-2-yl)isoindolin-1-one] | 1.38 | – | 58 | 81
CN1Cc2ccc(-c3ccc(/C=C4/NC(=S)NC4=O)s3)cc2C1=O [Cmpd 73, (E,Z)-2-Methyl-6-(5-((5-oxo-2-thioxoimidazolidin-4-ylidene)methyl)thiophen-2-yl)isoindolin-1-one] | 1.89 | – | 60 | 85
O=C1NC(=S)N/C1=C/c1ccc(-c2ccc3c(c2)CN(CCCN2CCCCC2)C3=O)s1 [Cmpd 75, (E,Z)-5-(5-((5-Oxo-2-thioxoimidazolidin-4-ylidene)methyl)thiophen-2-yl)-2-(3-(piperidin-1-yl)propyl)isoindolin-1-one] | 11.8 | – | 61 | 85
O=C1NC(=S)N/C1=C/c1ccc(-c2ccc3c(c2)CN(CCCN2CCCC2)C3=O)s1 [Cmpd 77, (E,Z)-5-(5((5-Oxo-2-thioxoimidazolidin-4-ylidene)methyl)thiophen-2-yl)-2-(3-(pyrrolidin-1-yl)propyl)isoindolin-1-one] | > 20 | – | 81 | 80
O=C1NC(=S)N/C1=C\c1ccc(-c2ccc3c(c2)C(=O)NCC3)s1 [Cmpd 81, (E,Z)-7-(5-((5-Oxo-2-thioxoimidazolidin-4-ylidene)methyl)thiophen-2-yl)-3,4-dihydroisoquinolin-1(2H)-one] | 0.67 | – | 62 | 88
O=C1NC(=S)N/C1=C\c1ccc(-c2ccc3c(c2)CCNC3=O)s1 [Cmpd 82, (E,Z)-6-(5-((5-Oxo-2-thioxoimidazolidin-4-ylidene)methyl)thiophen-2-yl)-3,4-dihydroisoquinolin-1(2H)-one] | 1.14 | – | 92 | 80

— patent US20130065897A1, “COMPOUNDS, PREPARATION AND USES THEREOF” (PETER MACCALLUM CANCER INSTITUTE, priority 2009, published 2013)
